Experimental data: patent US9949976B2, “Kinase inhibitor and use thereof” (Sihuan Pharmaceutical Holdings Group Ltd., priority 2013, dated 2018)

Key:
liver cancer PDX model = experiment: In vivo pharmacodynamics, liver cancer PDX model; set-up: species or system female NU/NU nude mouse; conditions: 200 mg/kg PO QD 21 days
Protocol: (§1) Tumor tissues were harvested from tumor-bearing mice of liver cancer PDX model, cut into pieces with diameter of 10-15 mm and seeded subcutaneously to back of female NU/NU nude mouse. When the tumors' average volume reached 100-300 mm^3, the animals were grouped and administered with a drug. Compound 1 was orally administrated once a day at an amount of 200 mg/kg, for 21 days. The volume of the drug for administration is 0.1 mL/10 g according to animal's body weight.
(§2) Tumor volume was measured with vernier calipers twice a week by measuring the major diameter and the minor diameter. The tumor volume is calculated by the following formula: volume=0.5×(major diameter)×(minor diameter)^2. The relative tumor volume (RTV) and the proliferation ratio (T/C) were calculated according to the result of measurement. RTV=Vt/V0, wherein Vt is the average tumor volume on the t day after grouping, and V0 is the average tumor volume on the day of grouping. T/C (%)=RTV of treatment group/RTV of solvent control group×100%.
(§3) One-way ANOVA was used for analysing the group statistical analysis of tumor volumes. p<0.05 was regarded as having significant difference.

MV-4-11 leukemia cell = experiment: BrdU cell proliferation assay (PerkinElme kit); assay type: cell-based; conditions: Homo sapiens, MV4-11, 48 h; read-out: In vitro cell-inhibiting activity IC50 MV-4-11
Protocol: (§4) Experimental method: cell proliferation assay was carried out by BrdU method (BrdU cell proliferation assay kit, PerkinElme Company).
(§5) Preparation of gradient dilution solutions of test compound: the stock solution containing 5 mM test compound was diluted by DMSO to prepare a 2 mM solution, then was subjected to 4-fold stepwise dilution to 9 concentration gradients.
MV-4-11 medium: IMDM+10% FBS
(1) Cells grown to exponential growth phase were digested with pancreatin, and centrifuged to collect the cells. The adherent cells were re-suspended in the corresponding culture medium, counted, and seeded to a 96-well plate; H358 cells and SW780 cells were seeded at 4000 cells/well/100 μL; PC3 cells were seeded at 1500 cells/well/100 μL; H441 cells were seeded at 6000 cells/well/100 μL. The plates were placed in a cell incubator at 37° C. After the cells adhered to the wall, the medium was replaced by serum-free medium. The suspended cells MV-4-11 and JeKo-1 were re-suspended with serum-free medium, counted, seeded to a 96-well plate by 10000 cells/well/100 μL and placed in a cell incubator overnight at 37° C. with 5% CO2. […]
(6) To each well, 200 μL of DELFIA Inducer was added and incubated for 15 min at room temperature. Value of fluorescence (Flu) was measured by ELISA instrument […]

CDK6/D3 = CDK6/D3 (Homo sapiens, UniProt Q00534); experiment: In vitro enzyme-inhibiting activity, Caliper Mobility Shift method; assay type: biochemical; conditions: read-out: CDK enzyme-inhibiting activity IC50 CDK6/D3
Protocol: Measurement of activity for inhibiting CDK4/6 kinase by Caliper Mobility Shift method.
50 mL stock solution containing 1000 mM HEPES (pH 7.5), and 50 μL stock solution containing 30% Brij-35, were added to 949.95 mL ultra pure water, and the resultant mixture was mixed homogeneously.
25 mL stock solution containing 4% Coating Reagent #3 (provided with the 12-sipper chip used in Caliper device), 50 mL stock solution containing 1000 mM HEPES (pH 7.5), 50 mL stock solution containing 0.5 M EDTA, and 0.25 mL stock solution containing 30% Brij-35, were added to 374.75 mL ultra pure water, and the resultant mixture was mixed homogeneously.
18 μL CDK6/D3 enzyme solution, and 14 μL stock solution containing 1M DTT were added to 2768 μL 1-fold CDK6 kinase buffer, and the resultant mixture was mixed homogeneously.
23 μL stock solution containing 100 mM ATP, 75 μL stock solution containing 1M MgCl2, and 75 μL FAM-tagged polypeptide 8, were added to 2827 μL 1-fold CDK6 kinase buffer, and the resultant mixture was mixed homogeneously.
DMSO solution containing 10 mM test compound was diluted with DMSO to a solution containing 50 μM test compound (which was used as a stock solution).
1) 5 μL 5-fold test compound solution and 10 μL 2.5-fold kinase solution were added to the corresponding wells in a 384-well plate, and incubated at room temperature for 10 min.
2) To the corresponding wells, 10 μL 2.5-fold polypeptide solution was added to start the enzymatic reaction, and incubation was performed at 28° C. for 5 h.
To the corresponding wells, 25 μL stop solution was added to stop the reaction.
The data was read by Caliper device, the inhibition rate was calculated by the following formula, and curve fitting was carried out by GraphPad5.0 software to get IC50 value. Inhibition rate=(maximal value−sample value)/(maximal value−minimal value)×100, wherein, maximal value: positive control without addition of test compound; minimal value: negative control without addition of enzyme.

[1] = system: esophageal cancer PDX model; experiment: In vivo pharmacodynamics, esophageal cancer PDX model; set-up: species or system female BALB/c nude mouse; conditions: 150 mg/kg PO QD 21 days
Protocol: as §1, with “esophageal” for “liver”, “2-4” for “10-15”, “right lateral thorax” for “back”, “BALB/c” for “NU/NU”, “about 150” for “100-300”, “150” for “200”
as §2, §3

H441 lung cancer cell = experiment: BrdU cell proliferation assay (PerkinElme kit); assay type: cell-based; conditions: Homo sapiens, NCI-H441, 48 h; read-out: In vitro cell-inhibiting activity IC50 H441
Protocol: as §4, §5
(§6) (1) Cells grown to exponential growth phase were digested with pancreatin, and centrifuged to collect the cells. The adherent cells were re-suspended in the corresponding culture medium, counted, and seeded to a 96-well plate; H358 cells and SW780 cells were seeded at 4000 cells/well/100 μL; PC3 cells were seeded at 1500 cells/well/100 μL; H441 cells were seeded at 6000 cells/well/100 μL. The plates were placed in a cell incubator at 37° C. After the cells adhered to the wall, the medium was replaced by serum-free medium. The suspended cells MV-4-11 and JeKo-1 were re-suspended with serum-free medium, counted, seeded to a 96-well plate by 10000 cells/well/100 μL and placed in a cell incubator overnight at 37° C. with 5% CO2.
(§7) (2) To each well, 99 μL growth medium containing 2×FBS was added, then 1 μL diluted 200× test compound was added to the well. The final concentration of the test compound was 10000, 2500, 625, 156.25, 39.06, 9.77, 2.44, 0.61, 0.15 or 0 nM, and the cells were cultured for 48 h at 37° C.
(§8) (3) To each well, 2 μL 100-fold BrdU labelled solution was added, and the culture medium was sucked by a vacuum pump after incubation in a cell incubator overnight and equilibrated at room temperature for 0.5 h.
(§9) (4) To each well, 100 μL fixing solution was added; the solution was discarded after incubation for 30 min at room temperature.
(§10) (5) To each well, 100 μL 1-fold BrdU-Eu detection antibody solution was added, the solution was discarded after incubation for 1 h at room temperature, and the well was washed with 1-fold washing liquor at 250 μL/well for 5 times.
(§11) (6) To each well, 200 μL of DELFIA Inducer was added and incubated for 15 min at room temperature. Value of fluorescence (Flu) was measured by ELISA instrument
(§12) (2) The data was processed by GraphPad Prism 6 software to get a curve and IC50 values.

H358 lung cancer cell = experiment: BrdU cell proliferation assay (PerkinElme kit); assay type: cell-based; conditions: Homo sapiens, NCI-H358, 48 h; read-out: In vitro cell-inhibiting activity IC50 H358
Protocol: as §4, §5, §6, §7, §8, §9, §10, §11, §12

[2] = system: SW780 bladder cancer cell; experiment: BrdU cell proliferation assay (PerkinElme kit); assay type: cell-based; conditions: Homo sapiens, SW780, 48 h; read-out: In vitro cell-inhibiting activity IC50 SW780
Protocol: as §4, §5, §6, §7, §8, §9, §10, §11, §12

[3] = system: PC3 prostatic cancer cell; experiment: BrdU cell proliferation assay (PerkinElme kit); assay type: cell-based; conditions: 48 h; read-out: In vitro cell-inhibiting activity IC50 PC3
Protocol: as §4, §5, §6, §7, §8, §9, §10, §11, §12

JeKo-1 lymphoma cell = experiment: BrdU cell proliferation assay (PerkinElme kit); assay type: cell-based; conditions: Homo sapiens, JeKo-1, 48 h; read-out: In vitro cell-inhibiting activity IC50 JeKo-1
Protocol: as §4, §5, §6, §7, §8, §9, §10, §11, §12

Chain of CDK6/D3 (Q00534 whole entry): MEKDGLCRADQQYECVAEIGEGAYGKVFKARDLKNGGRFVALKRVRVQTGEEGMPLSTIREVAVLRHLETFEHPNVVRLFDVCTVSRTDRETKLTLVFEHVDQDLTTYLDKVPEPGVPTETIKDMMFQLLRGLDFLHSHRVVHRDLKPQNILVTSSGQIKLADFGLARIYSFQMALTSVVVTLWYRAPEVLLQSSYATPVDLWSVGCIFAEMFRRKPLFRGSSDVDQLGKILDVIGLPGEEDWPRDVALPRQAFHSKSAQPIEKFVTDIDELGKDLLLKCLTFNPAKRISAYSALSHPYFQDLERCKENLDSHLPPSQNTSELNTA
Chain of CDK6/D3 (P30281 whole entry partner): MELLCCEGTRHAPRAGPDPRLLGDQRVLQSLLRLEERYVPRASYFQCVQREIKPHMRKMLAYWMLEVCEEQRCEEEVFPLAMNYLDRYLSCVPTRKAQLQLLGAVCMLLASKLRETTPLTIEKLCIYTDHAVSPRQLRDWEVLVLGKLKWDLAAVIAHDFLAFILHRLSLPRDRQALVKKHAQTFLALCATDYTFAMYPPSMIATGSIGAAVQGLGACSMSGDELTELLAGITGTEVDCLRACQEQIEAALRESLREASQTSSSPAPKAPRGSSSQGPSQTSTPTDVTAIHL

## CCN1CCN(Cc2cnc(Nc3cc(-c4cc(F)c5nc(C)n(C(C)C)c5c4)c(F)cn3)nc2)CC1 [Compound 1, 5-((4-ethylpiperazin-1-yl)methyl)-N-(5-fluoro-4-(4-fluoro-1-isopropyl-2-methyl-1H-benzo[d]imidazol-6-yl)pyridin-2-yl)pyrimidin-2-amine]
Liver cancer PDX model
  T/C (proliferation ratio): 31.74%
Liver cancer PDX model; average ± standard error
  Tumor volume after administration: 199.22 ± 33.76 mm^3
  Tumor volume before administration: 164.8 ± 10.35 mm^3
MV-4-11 leukemia cell
  IC50: 0.139 µM
CDK6/D3
  IC50: 0.016 µM
[1]; 150 mg/kg
  T/C (proliferation ratio): 29%
[1]; average ± standard error
  Tumor volume after administration: 221.6 ± 27.2 mm^3
  Tumor volume before administration: 177.7 ± 28.5 mm^3
H441 lung cancer cell
  IC50: 0.148 µM
H358 lung cancer cell
  IC50: 0.291 µM
[2]
  IC50: 0.163 µM
[3]
  IC50: 0.261 µM
JeKo-1 lymphoma cell
  IC50: 0.037 µM
